In patent US20030166561A1, “Peptide” (priority 1999, published 2003):
Where no end group is shown, it is not given here.

Key:
[1] = tested on: βTC6-F7 cells; test: Effect of preptin on glucose-stimulated insulin secretion from cultured βTC6-F7 cells; type: cell-based, murine; conditions: 10 mM glucose
Procedure: Insulin and amylin are known to modulate β-cell insulin secretion via presumed autocrine mechanisms. The effect of preptin on insulin secretion was therefore tested using a β-cell secretagogue protocol βTC6-F7 cells were subcultured at passage #52 into 24-well plates at 4×10^5 cells/well. They were grown for 3d in nDMEM to 80% confluence, then washed twice with KRB-HEPES. Stock preptin was serially diluted in incubation medium containing 10 mM D(+) glucose to yield final concentrations of 150, 75, 25, 5, 1 and 0.1 nM. Cells were then washed, and 1 ml/well of incubation medium containing 10 mM and-various final preptin concentrations was added to each well. Cells were incubated at 37° C. for 2 h, then medium removed. Cells were washed thrice with PBS, then lysed with 500 μl of lysis buffer. Incubation medium was centrifuged (16,000×g, 3 min) and the supernatant separated from pelleted debris. Incubation medium and lysates were then analyzed for insulin, preptin and protein as above.

[2] = tested on: isolated perfused rat pancreas; test: Insulin secretion from glucose-stimulated isolated-perfused rat pancreas (infusion of preptin or anti-preptin γ-globulin); conditions: 75 nM preptin, 20 mM glucose; compared with control (0-added preptin); p=0.03
Procedure: Pancreases from fasted adult male Wistar rats (300±25 g) were isolated and prepared (Grodsky and Fanska 1975). Pancreases were perfused with KHB supplemented with 4% dextran, 0.5% BSA, 3 mM arginine and 5.5 mM glucose. Perfusate was gassed with 95% 02:5% CO2 and infused by peristaltic pump (2.7 ml.min^−1 without re-circulation). Pancreases were perfused and equilibrated for 20 min prior to each 70 min perfusion experiment. 10 min into the experiment either carrier buffer (0.1% BSA in 0.9% NaCl), preptin dissolved in carrier buffer, anti-preptin Ig or non-immunised rabbit Ig (both diluted in carrier buffer) were introduced via a side-arm infusion (final concentrations in perfusate: 75 nM preptin; 35 μg.ml^−1 Ig). In addition, at 25 min, glucose was infused for 20 min (final concentration in perfusate: 20 mM). […]
Pancreases were perfused with KHB supplemented with 4% dextran, 0.5% BSA, 3 mM-arginine and 5.5 mM glucose (final concentrations). […] 10-min into the experiment either anti-preptin γ-globulin or non-immune rabbit γ-globulin were introduced via a side-arm infusion (final γ-globulin concentration in perfusate: 35 μg.ml^−1 in carrier buffer (0.1% BSA in 0.9% NaCl). In addition, at 25-min, glucose was infused for 20-min (measured final concentration in perfusate: 20 mM). Continuous 1-min fractions were collected on ice and assayed for insulin (RIA).

DVSTSQAVLPDDFPRYPVGKFFKFDTWRQSAGRL [synthetic rat preptin, 34 amino acid peptide, Asp69-Leu102 of rat proIGF-II E-peptide, chemically synthesized using Fmoc chemistry]
preptin concentration at which effect on insulin secretion reached maximal [1]: 75 nM | glucose-stimulated secretion of insulin ([1]; 2 h, 37° C., compared to controls (0 added preptin)): enhanced | preptin concentration at which significant effects on insulin secretion were detected ([1]; compared to controls (0 added preptin)): ≥ 0.1 nM | enhancement of second phase of insulin secretion (areas-under-curve) [2]: 30%
